The values that follow come from the METLIN SMRT retention time set (Domingo-Almenara et al. 2019).

The nature of this series: gradient 5% acetonitrile 3 min, to 50% in 2 min, to 85% in 15 min, held 3 min, 100 µL/min. Particulars: column: Zorbax Extend-C18 2.1 x 50 mm; eluents: water / acetonitrile, 0.1% formic acid. Put shortly: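 Pure standards were analyzed in mixtures of ~100 molecules using HPLC coupled to a quadrupole time-of-flight mass spectrometer, in both positive and negative ionization mode. Separation used a Zorbax Extend-C18 column (2.1 × 50 mm, 1.8 μm) at 100 μL/min, with water and acetonitrile each containing 0.1% formic acid. Dead and dwell volumes were 40 μL and 900 μL, and data were collected over 3 months. Retention time was read from computationally picked adduct peaks, each inspected manually.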
The compound `CC(Oc1ccccc1)C(=O)NCc1nnnn1-c1ccc(Cl)cc1` (centres undefined) registered an RP-LC retention time of 824 s.

Regarding `Cc1cccc(C)c1NC(=O)N1CCC(c2cc(N)on2)CC1`, the RP-LC retention time stood at 660 s. Regarding `CCn1cc(C(=O)N2CCC3(CCC3O)CC2)cn1` (centres undefined), the RP-LC retention time is 598 s. In the case of `COc1ccccc1-c1nc(Cn2nnc(-c3nc(-c4cccc(OC)c4OC)no3)c2C)c(C)o1`, the RP-LC retention time worked out at 1050 s.

`Cn1nc(C(=O)N2CCCC(C(=O)NC3CC3)C2)c2c1CCN(C(=O)COc1ccc(F)cc1)C2` (centres undefined): the RP-LC retention time is 674 s. `Cc1cccc(NC(=O)Cn2nc(N3CCCC3)c3ccccc3c2=O)c1` registered an RP-LC retention time of 960 s. With `Cc1ccc(C)c(NS(=O)(=O)c2ccc(-c3c(C)noc3C)cc2)c1` the figure was 996 s; with `O=C(Nc1ccccc1C(F)(F)F)N1CCC(N2CCN(Cc3ccc(F)cc3)C(=O)C2=O)CC1`, 752 s. With `CCOC(=O)Cc1c(CN2CCN(C)CC2)c2ccccc2n1Cc1ccccc1` the figure was 681 s; with `CC(NC(=O)c1ccc(F)c(F)c1)C(=O)Nc1nc2ccccc2[nH]1` (centres undefined), 655 s. The figure for `COC(=O)c1c(C)[nH]c(C(=O)N2CCCC(C(=O)NCc3cccc(Br)c3)C2)c1C` (centres undefined) is 813 s. The compound `Cc1ccc(-c2nc(N3CC(C)OC(C)C3)c3ccccc3n2)cc1` (centres undefined) gave an RP-LC retention time of 763 s. `COCCNC(=O)c1nnc(-c2ccc(S(=O)(=O)N(C)C)cc2)o1` gave an RP-LC retention time of 687 s.

`CN(CCc1noc(-c2ccc(C(=O)N3CCCCC3)cc2)n1)C(=O)c1ccc(Br)o1` returned an RP-LC retention time of 782 s.

`O=c1ccn(-c2cccc(F)c2)nc1-c1nc(-c2ccc3c(c2)OCO3)no1` came in with an RP-LC retention time of 846 s. Compound `COc1ccc(C(C)NC(=O)c2c(C)sc3ccn(CC(C)C)c(=O)c23)cc1` (centres undefined) registered an RP-LC retention time of 962 s. With `Cc1ccc(S(=O)(=O)N2CCC(CC(=O)N3CCN(c4ccccn4)CC3)CC2)cc1` the figure was 701 s; with `COCCc1noc([C@@H]2CN(Cc3cccc4[nH]ccc34)C[C@H]2CO)n1`, 554 s. With `COc1cccc(CN2CCC3(CCC3O)CC2)c1OC` (centres undefined) the figure was 572 s; with `CCc1cc(=O)n(CC(=O)NCc2ccc3c(c2)OCO3)c(-c2ccccc2)n1`, 1000 s.

`CCOC(=O)c1cn[nH]c1S(=O)(=O)N1CCC(C(N)=O)CC1` had an RP-LC retention time of 585 s.

Consider `COC(=O)c1c(NCc2cccs2)c2cccc(Cl)c2[nH]c1=O`, for which the RP-LC retention time was 764 s. With `O=C(c1cccc(Cn2cncn2)c1)N1CCC2(CC1)OCCO2` the figure was 607 s; with `CCOc1ccc(S(=O)(=O)NCC(c2cn(C)c3ccccc23)N(C)C)cc1F` (centres undefined), 603 s. Take `CCn1ccc(C(=O)N2CCC[C@H]2c2nc(-c3ccccc3)n[nH]2)n1`: the RP-LC retention time was 662 s. The figure for `Cc1nc2cc(-c3ccc(Cl)cc3)nn2c(C)c1CCC(=O)N1CCN(c2ccccn2)CC1` is 727 s; for `CCN1C(=O)COc2ccc(-c3noc(-c4ccc(CS(=O)(=O)c5ccc(C)cc5)cc4)n3)cc21` it is 1100 s; for `Cc1ccc(S(=O)(=O)Nc2ccc3nc(N4CCN(CCC#N)CC4)cc(C(=O)O)c3c2)cc1C` it is 614 s. The figure for `O=C(Nc1nc(-c2ccccc2)c(-c2ccccc2)s1)c1ccc(Br)s1` is 1460 s. Take `CC(C)S(=O)(=O)c1ccc(Cc2nnc(NC(=O)C3=COCCO3)o2)cc1`: the RP-LC retention time is 616 s. With `CCC(C)NC(=O)Cc1cccn1-c1ccc(F)cc1` (centres undefined) the figure was 856 s; with `CCCn1cc(C(=O)NCCCN(C)C)c(S(=O)(=O)N2CCN(c3ccc(Cl)cc3)CC2)n1`, 757 s. With `CSc1cccc(NC(=O)C2CCCN(C(=O)c3cc(C)cc(C)c3)C2)c1` (centres undefined) the figure was 1010 s; with `O=C1NC2(CCN(C(=O)Nc3ccccc3F)CC2)N=C1c1cccc(Cl)c1`, 839 s; with `Cc1cccc(S(=O)Cc2ccc(C(=O)NCCN3CCOCC3)o2)c1` (centres undefined), 583 s. With `Cc1ccc(C)c(NC(=O)CN2C(=O)CCCc3cc(S(=O)(=O)N4CCCC4)ccc32)c1` the figure was 918 s; with `O=C1COc2ccc(-c3csc(NC(=O)c4ccc(Br)cc4)n3)cc2N1`, 946 s; with `O=C(CCC1CCCC1)Nc1ccc(CC(=O)NC2CC2)cc1`, 738 s. Compound `Cc1noc(C)c1S(=O)(=O)N1CCC(c2nc(CCOCc3ccccc3)no2)C1` (centres undefined) returned an RP-LC retention time of 984 s. With `O=C(NC1CCN(Cc2ccccc2)CC1)c1ccc(I)cc1` the figure was 727 s; with `CC(C)n1cnc(S(=O)(=O)N2CCCC(C(=O)NCc3ccc(N(C)C)cc3)C2)c1` (centres undefined), 597 s. The figure for `Cn1cc(-c2nc(C(=O)NCc3cccc(C(F)(F)F)c3)cs2)c2cccnc21` is 983 s; for `O=C(NCCc1cccs1)C1CCN(C(=O)c2ncn3c2COC(c2ccccc2)C3)CC1` (centres undefined) it is 738 s; for `CCn1cc(CN2CCC(C(=O)NCCCc3ccccc3)CC2)c2cc(OC)ccc21` it is 765 s. With `Cc1ccc(C(=O)N2CCCC(c3ccnc(Nc4ccc(F)cc4)n3)C2)s1` (centres undefined) the figure was 1020 s; with `O=C(Cn1nc2n(c1=O)CCCCC2)NCc1ccc2c(c1)OCO2`, 756 s. The compound `COc1cc([C@H]2Oc3cc([C@H]4Oc5cc(O)cc(O)c5C(=O)[C@@H]4O)ccc3O[C@@H]2CO)ccc1O` showed an RP-LC retention time of 685 s. On to `CCC(C)NC(=O)CS(=O)Cc1cnn(-c2ccccc2)c1-n1cccc1` (centres undefined), for which the RP-LC retention time worked out at 756 s. For the compound `Cc1ccc(-c2ccc(-n3nc(C)c(S(=O)(=O)NCCN4CCOCC4)c3C)nn2)cc1C`, the RP-LC retention time came out at 702 s. The figure for `CC(C)N1C(=O)c2cccnc2Sc2cc(NC(=O)c3ccsc3)ccc21` is 832 s. Take `COc1ccc(CN(Cc2cc(=O)n3ccccc3n2)CC(C)C)cc1OC`: the RP-LC retention time came to 615 s. With `Cc1ccc(Nc2c(-c3ccc(N(C)C)cc3)nc3ncccn23)c(C)c1` the figure was 782 s; with `O=C(CCC1CCCN(S(=O)(=O)c2ccccc2)C1)NCC1CCCCC1` (centres undefined), 956 s.

`O=C(NC1CCN(c2nnc3ccccn23)CC1)c1cc2c(s1)CCCC2` had an RP-LC retention time of 742 s. With `O=C(Cc1ccc(F)cc1)NC1CCN(c2ccccc2)C1=O` (centres undefined) the figure was 770 s; with `CN(C)c1cc(N2CCCC(NC(=O)Cc3ccsc3)C2)ncn1` (centres undefined), 870 s; with `COC(=O)c1c(C)[nH]c(C(=O)N2CCC(CC(=O)NC(C)CCc3ccccc3)CC2)c1C` (centres undefined), 880 s. The figure for `COc1ccc(NS(=O)(=O)c2cc3n(c2)CCCNC3=O)cc1Cl` is 677 s. The figure for `COc1ccc(C)cc1NC(=O)N1CCCC1c1c(C)noc1C` (centres undefined) is 840 s; for `Cc1ccc2ncn(C3CCN(C(=O)Nc4ccc(F)cc4)CC3)c(=O)c2c1` it is 765 s; for `CCc1nnc(-c2ccc3ccn(CC(=O)NCc4ccc(F)cc4)c3c2)o1` it is 801 s.

In the case of `O=C(NCCN1CCOCC1)c1ccc(CS(=O)Cc2cccc(Cl)c2)o1` (centres undefined), the RP-LC retention time was 601 s.

Regarding `O=C(c1ccsc1)N1CCC[C@H]1c1nc(C2CCOCC2)n[nH]1`, the RP-LC retention time was 592 s. The figure for `Cc1cc(C)cc(NC(=O)Cn2cccc2-c2nnc(C3CCC3)o2)c1` is 920 s; for `O=C(NCc1cccs1)C1CCN(S(=O)(=O)c2cc(C(=O)N3CCCCCC3)cs2)CC1` it is 861 s.

As for `Cc1ccc(C(C)NC(=O)c2cn3ccncc3n2)c(C)c1` (centres undefined), the RP-LC retention time stood at 787 s. With `Cc1ccc(Cn2nc3c(S(=O)(=O)N4CCCCC4)cccn3c2=O)cc1` the figure was 925 s; with `COc1ccc2cc(C(=O)NCCC(=O)NCCc3c[nH]c4ccccc34)[nH]c2c1`, 775 s; with `CC(C)N1CCN(C(=O)c2cn3ccnc(-c4ccccc4)c3n2)CC1`, 602 s. With `COc1cc2c(cc1CNC(=O)C1CC1)OCCCO2` the figure was 709 s; with `CCN1C(=O)c2cc(C(=O)N3CCC(N4CCCCC4)CC3)nn2CC1(C)C(=O)NC1CCCC1` (centres undefined), 604 s.

As to `CC(=O)N1CCc2nn(C)c(=O)n2CC1`, the RP-LC retention time worked out at 543 s. Consider `COc1ccc(OC)c(S(=O)(=O)NCC(c2cccs2)N2CCc3ccccc32)c1` (centres undefined), for which the RP-LC retention time turned out to be 1010 s. With `CCc1noc(NC(C)=O)c1-c1ccc(C)c(S(=O)(=O)N(CC)CC)c1` the figure was 836 s; with `Oc1c(C(Nc2ccccn2)c2ccccc2F)ccc2cccnc12` (centres undefined), 604 s; with `O=c1c2c(CO)c(-c3ccccc3)nn2ccn1CCc1ccccc1`, 926 s. Take `CCNc1cc(N2CCCC(CCC(=O)Nc3ccc(OC)cc3)C2)ncn1` (centres undefined): the RP-LC retention time was 659 s. With `Cc1ccc(CN2C[C@]34C=C[C@H](O3)[C@@H](C(=O)NCc3ccccc3)[C@H]4C2=O)cc1` the figure was 822 s; with `Cc1ccc(N2C(=O)C3N=NN(Cc4nc(-c5ccccc5C)no4)C3C2=O)cc1Cl` (centres undefined), 1140 s.
